Where a name gives a salt, the structure may show the parent alone.
Molecular target: T1, h5-HT5A receptor (Homo sapiens, UniProt P47898)
T1 construct: expressed in transfected cells; membranes used
Test: h5-HT5A [3H]5-CT binding assay
Settings: affinity for 5-HT5A; membranes of HEK293 cells expressing the h5-HT5A receptor gene, 2.5 nM [3H]5-CT
Procedure: h5-HT5A [^3H]5-CT Binding Assay
Membranes of HEK293 cells which permanently express the h5-HT5A receptor gene were incubated in 100 mM tris-HCl buffer (pH 7.7) containing 1 mM EDTA, in the presence of 2.5 nM [^3H]5-CT (total volume 600 μL). The total binding is defined as the binding that is observed when the membranes are incubated in the presence of only the radioligand. The inhibition induced by the compound is determined by incubation of cell membranes in the presence of the radioligand and various concentrations of the compound of interest. Nonspecific binding is defined as the [^3H]5-CT binding obtained by incubation of the membranes, the same as for the total binding, but in the presence of 10 μM methiothepine. Following incubation for 75 min at 30° C., the membrane suspension was filtered through a GF/B-Filter coated with 0.03% PEI, using a Skatron® harvesting system. The residual radioactivity in the filter was quantified by liquid scintillation counting.
Various concentrations of the test substances were used in both assays, and the Ki or IC50 values were determined.

T1 sequence (P47898 whole entry): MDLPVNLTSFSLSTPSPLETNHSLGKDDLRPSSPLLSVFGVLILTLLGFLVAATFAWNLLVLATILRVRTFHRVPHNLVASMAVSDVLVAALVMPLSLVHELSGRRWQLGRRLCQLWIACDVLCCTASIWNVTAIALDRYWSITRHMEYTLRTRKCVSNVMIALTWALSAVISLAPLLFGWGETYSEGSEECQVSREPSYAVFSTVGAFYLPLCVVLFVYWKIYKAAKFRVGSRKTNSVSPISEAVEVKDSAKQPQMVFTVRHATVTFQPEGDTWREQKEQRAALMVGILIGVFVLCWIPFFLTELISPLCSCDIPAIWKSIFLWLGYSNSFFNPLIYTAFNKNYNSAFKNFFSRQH

| Ki [µM] | Structure (SMILES) |
| --- | --- |
| < 0.1 | Cc1ccc(NC(=N)NCc2ccccc2Oc2ccccc2)nc1 [Example 28, N-(5-Methylpyridin-2-yl)-N′-(2-phenoxybenzyl)guanidine hydrochloride] |
| < 0.1 | N#Cc1cccc(NC(=N)NCc2c(Cl)cccc2Oc2ccccc2)n1 [Example 82, N-(2-Chloro-6-phenoxybenzyl)-N′-(6-cyanopyridin-2-yl)guanidine acetate] |
| < 0.1 | COc1cccc(OC)c1CNC(=N)Nc1ccccn1 [Example 5, N-(2,6-dimethoxybenzyl)-N′-pyridin-2-yl-guanidine acetate] |
| < 0.1 | COc1cccc(OC)c1CNC(=N)Nc1cc2ccccc2cn1 [Example 39, N-(2,6-Dimethoxybenzyl)-N′-isoquinolin-3-ylguanidine] |
| < 0.3 | COc1ccccc1CNC(=N)Nc1cc(-c2ccc(F)cc2)ccn1 [Example 59, N-[4-(4-Fluorophenyl)pyridin-2-yl]-N′-(2-methoxybenzyl)guanidine acetate] |
| < 0.1 | CCOc1ccccc1CNC(=N)Nc1cccc(Br)n1 [Example 75, N-(6-Bromopyridin-2-yl)-N′-(2-ethoxybenzyl)guanidine acetate] |
| < 0.1 | COc1ccccc1CNC(=N)Nc1ccc(-c2ccccc2)cn1 [Example 86, N-(2-Methoxybenzyl)-N′-(5-phenylpyridin-2-yl)guanidine] |
| < 0.3 | COc1ccccc1CNC(=N)Nc1ccc(-c2ccc(C(F)(F)F)cc2)cn1 [Example 89, N-(2-Methoxybenzyl)-N′-{5-[4-(trifluoromethyl)phenyl]pyridin-2-yl}guanidine acetate] |
| < 0.1 | COc1cccc(C)c1CNC(=N)Nc1ncccc1C [Example 33, N-(2-Methoxy-6-methylbenzyl)-N′-(3-methylpyridin-2-yl)guanidine] |
| < 0.1 | COc1cccc(OC)c1CNC(=N)Nc1cc(C#N)ccn1 [Example 64, N-(4-Cyanopyridin-2-yl)-N′-(2,6-dimethoxybenzyl)guanidine acetate] |
| < 0.1 | CCOc1ccccc1CNC(=N)Nc1ccc(C)cn1 [Example 22, N-(2-Ethoxybenzyl)-N′-(5-methylpyridin-2-yl)guanidine acetate] |
| < 0.1 | COc1cccc(Cl)c1CNC(=N)Nc1ccc(C)cn1 [Example 18, N-(2-Chloro-6-methoxybenzyl)-N′-(5-methylpyridin-2-yl)guanidine acetate] |
| < 0.1 | Cc1ccc(NC(=N)NCc2c(Cl)cccc2Oc2ccccc2)nc1 [Example 27, N-(2-Chloro-6-phenoxybenzyl)-N′-(5-methylpyridin-2-yl)guanidine acetate] |
| < 0.1 | Cc1ccc(NC(=N)NCc2ccccc2OC(F)F)nc1 [Example 26, N-[2-(Difluoromethoxy)benzyl]-N′-(5-methylpyridin-2-yl)guanidine] |
| < 0.3 | N#Cc1ccc(NC(=N)NCc2ccccc2Cl)nc1 [Example 98, N-(2-Chlorobenzyl)-N′-(5-cyanopyridin-2-yl)guanidine acetate] |
| < 0.3 | COc1cccc(OC)c1CNC(=N)Nc1ncccc1-c1ccc(F)cc1 [Example 61, N-(2,6-Dimethoxybenzyl)-N′-(3-(4-fluorophenyl)pyridin-2-yl)guanidine acetate] |
| < 0.3 | N=C(NCc1ccccc1Cl)Nc1ccc(I)cn1 [Example 94, N-(2-Chlorobenzyl)-N′-(5-iodopyridin-2-yl)guanidine acetate] |
| < 0.1 | COc1cccc(OC)c1CNC(=N)Nc1cnc2ccccc2c1 [Example 17, N-(2,6-Dimethoxybenzyl)-N′-quinolin-3-yl-guanidine acetate] |
| < 0.1 | COc1cccc(C)c1CNC(=N)Nc1cccc(Br)n1 [Example 71, N-(6-Bromopyridin-2-yl)-N′-(2-methoxy-6-methylbenzyl)guanidine] |
| < 0.1 | COc1ccccc1CNC(=N)Nc1cc(Br)ccn1 [Example 45, N-(4-Bromopyridin-2-yl)-N′-(2-methoxybenzyl)guanidine] |
| < 0.1 | COc1cccc(F)c1CNC(=N)Nc1cccc(C#N)n1 [Example 77, N-(6-Cyanopyridin-2-yl)-N′-(2-fluoro-6-methoxybenzyl)guanidine acetate] |
| < 0.1 | COc1cccc(OC)c1CNC(=N)Nc1ncccc1C [Example 13, N-(2,6-Dimethoxybenzyl)-N′-(3-methylpyridin-2-yl)guanidine acetate] |
| < 0.3 | CCc1ccccc1CNC(=N)Nc1ccc(C)cn1 [Example 25, N-(2-Ethylbenzyl)-N′-(5-methylpyridin-2-yl)guanidine] |
| < 0.1 | COc1cccc(Cl)c1CNC(=N)Nc1cccc(C#N)n1 [Example 78, N-(2-Chloro-6-methoxybenzyl)-N′-(6-cyanopyridin-2-yl)guanidine acetate] |

| Ki [µM] | Structure (SMILES) |
| --- | --- |
| < 0.1 | N#Cc1cccc(NC(=N)NCc2ccccc2OC(F)(F)F)n1 [Example 79, N-(6-Cyanopyridin-2-yl)-N′-[2-(trifluoromethoxy)benzyl]guanidine acetate] |
| < 0.1 | COc1cccc(OC)c1CNC(=N)Nc1cccc(-c2ccc(F)cc2)n1 [Example 54, N-(2,6-Dimethoxybenzyl)-N′-[6-(4-fluorophenyl)pyridin-2-yl]guanidine] |
| < 0.1 | Cc1ccc(NC(=N)NCc2ccccc2OC(C)C)nc1 [Example 23, N-(2-Isopropoxybenzyl)-N′-(5-methylpyridin-2-yl)guanidine acetate] |
| < 0.1 | COc1cccc(Cl)c1CNC(=N)Nc1ccc(C#N)cn1 [Example 95, N-(2-Chloro-6-methoxybenzyl)-N′-(5-cyanopyridin-2-yl)guanidine acetate] |
| < 0.1 | Cc1ccc(NC(=N)NCc2ccccc2OC(F)(F)F)nc1 [Example 24, N-(5-Methylpyridin-2-yl)-N′-[2-(trifluoromethoxy)benzyl]guanidine] |
| < 0.1 | COc1ccccc1CNC(=N)Nc1ccccn1 [Example 1, N-(2-methoxybenzyl)-N′-pyridin-2-yl-guanidine acetate] |
| < 10 | COc1ccccc1CNC(=N)Nc1ccc[n+](C)c1 [Example 35, 3-({Imino[(2-methoxybenzyl)amino]methyl}amino)-1-methylpyridinium acetate] |
| < 0.1 | COc1ccccc1CNC(=N)Nc1cccc(C#N)n1 [Example 52, N-(6-Cyanopyridin-2-yl)-N′-(2-methoxybenzyl)guanidine acetate] |
| < 10 | COc1cccc(OC)c1CNC(=N)Nc1ncccc1C#N [Example 65, N-(3-Cyanopyridin-2-yl)-N′-(2,6-dimethoxybenzyl)guanidine acetate] |
| < 0.1 | COc1cccc(F)c1CNC(=N)Nc1ncccc1C [Example 32, N-(2-Fluoro-6-methoxybenzyl)-N′-(3-methylpyridin-2-yl)guanidine] |
| < 0.1 | COc1cccc(OC)c1CNC(=N)Nc1cc(-c2ccc(F)cc2)ccn1 [Example 57, N-(2,6-Dimethoxybenzyl)-N′-[4-(4-fluorophenyl)pyridin-2-yl]guanidine acetate] |
| < 0.1 | COc1cccc(OC)c1CNC(=N)Nc1ccc(-c2ccc(F)cc2)cn1 [Example 84, N-(2,6-Dimethoxybenzyl)-N′-[5-(4-fluorophenyl)pyridin-2-yl]guanidine acetate] |
| < 0.3 | Cc1ccc(NC(=N)NCc2ccccc2Cl)nc1 [Example 21, N-(2-Chlorobenzyl)-N′-(5-methylpyridin-2-yl)guanidine] |
| < 0.3 | COc1cccc(OC)c1CNC(=N)Nc1ncccc1-c1ccccc1 [Example 60, N-(2,6-Dimethoxybenzyl)-N′-(3-phenylpyridin-2-yl)guanidine acetate] |
| < 0.1 | COc1cccc(OC)c1CNC(=N)Nc1ccc(C#N)cn1 [Example 85, N-(5-Cyanopyridin-2-yl)-N′-(2,6-dimethoxybenzyl)guanidine acetate] |
| < 0.1 | COc1ccccc1CNC(=N)Nc1cccc(Br)n1 [Example 42, N-(6-Bromopyridin-2-yl)-N′-(2-methoxybenzyl)guanidine] |
| < 0.1 | COc1cccc(OC)c1CNC(=N)Nc1cccc(Br)n1 [Example 43, N-(6-Bromopyridin-2-yl)-N′-(2,6-dimethoxybenzyl)guanidine] |
| < 10 | COc1ccccc1CNC(=N)Nc1ncccn1 [Example 36, N-(2-Methoxybenzyl)-N′-pyrimidin-2-yl-guanidine acetate] |
| < 10 | COc1ccccc1CNC(=N)Nc1ncccc1-c1ccc(F)cc1 [Example 63, N-[3-(4-Fluorophenyl)pyridin-2-yl]-N′-(2-methoxybenzyl)guanidine acetate] |
| < 0.1 | COc1ccccc1CN=C(N)Nc1ccc(I)cn1 [Example 4, N-(5-Iodopyridin-2-yl)-N″-(2-methoxybenzyl)guanidine] |
| < 0.1 | COc1ccccc1CNC(=N)Nc1ccc(-c2ccc(F)cc2)cn1 [Example 88, N-[5-(4-Fluorophenyl)pyridin-2-yl]-N′-(2-methoxybenzyl)guanidine acetate] |
| < 0.1 | COc1cccc(OC)c1CNC(=N)Nc1cc(C)ccn1 [Example 30, N-(2,6-Dimethoxybenzyl)-N′-(4-methylpyridin-2-yl)guanidine acetate] |
| < 10 | COc1ccccc1CNC(=N)Nc1nccc(-c2cccs2)n1 [Example 14, N-(2-Methoxybenzyl)-N′-(4-(2-thienyl)pyrimidin-2-yl]guanidine acetate] |
| < 0.1 | COc1cccc(OC)c1CNC(=N)Nc1ccc2ccccc2n1 [Example 41, N-(2,6-Dimethoxybenzyl)-N′-quinolin-2-yl-guanidine acetate] |
